According to patent US8129413B2, “Crystalline forms of MC4R agonist and process for synthesis” (Merck Sharp & Dohme Corp., priority 2005, dated 2012):
One block for each molecule: values may come before it.

Experiments:
Assay type in all cases: physicochemical
[1] = Crystal form conversion on exposure to relative humidity
Experimental: (§1) Method 2 Drying the crystalline hydrate mono HCl salt of Compound I (1-7) at a temperature over about 4° C. and relative a humidity less than about 10% yields the crystalline anhydrous mono HCl salt Form I of Compound I (1-5). The crystalline hydrate mono HCl salt of Compound I (1-7) converts to the crystalline anhydrous mono HCl salt Form I of Compound I (1-5) by means of a continuous change; as the crystalline hydrate is dried, the x-ray diffraction pattern, solid-state carbon-13 CPMAS, and solid-state fluorine-19 MAS patterns merge from the crystalline hydrate to crystalline anhydrous Form I. Incomplete conversion to the anhydrous form I will yield a unique phase, not merely a mixture of crystalline anhydrous form I and crystalline hydrate.
Method 1 A solution of compound 1-3 from Example 1 (14.6 g, 26.7 mmol) in isopropyl acetate (91 ml, at 160 g/L) was agitated in vessel 1 at 15-25° C., and 0.5 N HCl/H2O solution (54.4 mL, 27.2 mmol) was added. The mixture was aged for 5-10 minutes with agitation followed by settling without agitation. The aqueous layer was removed and transferred to vessel 2. 20 ml of deionized water were charged to vessel 1, as a rinse of the isopropyl acetate layer. After agitating the isopropyl acetate-deionized water mixture for about 5 minutes, the aqueous layer was removed and combined with the aqueous layer in vessel 2. […]

[2] = Storage stability of the free base
[3] = Thermodynamic stability and interconversion of crystalline forms
Experimental: as §1

relative humidity at which anhydrous Form I converts to crystalline hydrate mono HCl salt ([1]; exposure to humidity, continuous structural change): greater than 20%
Compound: CC(=O)N[C@@H](C)c1cc(Cl)ccc1C1CCN(C(=O)C2CN(C(C)(C)C)C[C@H]2c2ccc(F)cc2F)CC1 (stereo partly drawn) [Compound 1-5]

storage temperature above which subject to oxidation ([2]; stored): greater than −40 °C
Compound: CC(=O)N[C@@H](C)c1cc(Cl)ccc1C1CCN(C(=O)[C@@H]2CN(C(C)(C)C)C[C@H]2c2ccc(F)cc2F)CC1 [Compound I, N-{(1S)-1-[2-(1-{[(3S,4R)-1-tert-butyl-4-(2,4-difluorophenyl)pyrrolidin-3-yl]carbonyl}piperidin-4-yl)-5-chlorophenyl]ethyl}acetamide]
stability of the solid form ([2]; storage, light, heat): unstable, photosensitive and thermally sensitive

relative humidity at which hydrate converts to anhydrous mono HCl salt Form I ([1]; drying at a temperature over about 4° C.): less than 10%
Compound: CC(=O)N[C@@H](C)c1cc(Cl)ccc1C1CCN(C(=O)C2CN(C(C)(C)C)C[C@H]2c2ccc(F)cc2F)CC1 (stereo partly drawn) [Compound 1-7]
thermodynamic stability among crystalline forms ([3]; ambient conditions): most thermodynamically stable crystalline form

Compound: CC(=O)N[C@@H](C)c1cc(Cl)ccc1C1CCN(C(=O)C2CN(C(C)(C)C)C[C@H]2c2ccc(F)cc2F)CC1 (stereo partly drawn) [Compound 1-6]
physical stability of the crystal form (conversion to another form) ([3]; room temperature): converts to crystalline anhydrous mono HCl salt Form I (1-5) at room temperature
